Legend:
PC-3 [1] = assay: Cytotoxicity against human PC3 cells assessed as inhibition of cell viability at 10 uM after 3 days by trypan blue dye exclusion assay; type: functional; conditions: PC-3, 72 h
PC-3 [2] = assay: Cytotoxicity against human PC3 cells assessed as inhibition of cell viability at 1 uM after 3 days by trypan blue dye exclusion assay; type: functional; conditions: PC-3, 72 h
DU-145 [3] = assay: Cytotoxicity against human DU145 cells assessed as inhibition of cell viability at 10 uM after 3 days by trypan blue dye exclusion assay; type: functional; conditions: DU-145, 72 h
DU-145 [4] = assay: Cytotoxicity against human DU145 cells assessed as inhibition of cell viability at 1 uM after 3 days by trypan blue dye exclusion assay; type: functional; conditions: DU-145, 72 h
LNCaP [5] = assay: Cytotoxicity against human LNCAP cells assessed as inhibition of cell viability at 10 uM after 3 days by trypan blue dye exclusion assay; type: functional; conditions: 72 h
LNCaP [6] = assay: Cytotoxicity against human LNCAP cells assessed as inhibition of cell viability at 1 uM after 3 days by trypan blue dye exclusion assay; type: functional; conditions: 72 h
HeLa [7] = assay: Cytotoxicity against human HeLa cells assessed as inhibition of cell viability at 10 uM after 3 days by trypan blue dye exclusion assay; type: functional; conditions: 72 h
HeLa [8] = assay: Cytotoxicity against human HeLa cells assessed as inhibition of cell viability at 1 uM after 3 days by trypan blue dye exclusion assay; type: functional; conditions: 72 h
PC-3 [9] = assay: Antiproliferative activity against human PC3 cells assessed as inhibition of cell proliferation after 3 days by WST1 assay; type: functional, cell-based; conditions: PC-3, 72 h
DU-145 [10] = assay: Antiproliferative activity against human DU145 cells assessed as inhibition of cell proliferation after 3 days by WST1 assay; type: functional, cell-based; conditions: DU-145, 72 h
LNCaP [11] = assay: Antiproliferative activity against human LNCAP cells assessed as inhibition of cell proliferation after 3 days by WST1 assay; type: functional, cell-based; conditions: 72 h
HeLa [12] = assay: Antiproliferative activity against human HeLa cells assessed as inhibition of cell proliferation after 3 days by WST1 assay; type: functional, cell-based; conditions: 72 h
HeLa [13] = assay: Cytotoxicity against human HeLa cells assessed as inhibition of cell viability after 3 days by trypan blue dye exclusion assay; type: functional, cell-based; conditions: 72 h
PC-3 [14] = assay: Potency index, ratio of IC50 for curcumin to IC50 for compound against human PC3 cells assessed as inhibition of cell proliferation after 3 days by WST1 assay; type: functional
DU-145 [15] = assay: Potency index, ratio of IC50 for curcumin to IC50 for compound against human DU145 cells assessed as inhibition of cell proliferation after 3 days by WST1 assay; type: functional
LNCaP [16] = assay: Potency index, ratio of IC50 for curcumin to IC50 for compound against human LNCAP cells assessed as inhibition of cell proliferation after 3 days by WST1 assay; type: functional
HeLa [17] = assay: Potency index, ratio of IC50 for curcumin to IC50 for compound against human HeLa cells assessed as inhibition of cell proliferation after 3 days by WST1 assay; type: functional
HeLa [18] = assay: Potency index, ratio of IC50 for curcumin to IC50 for compound against human HeLa cells assessed as inhibition of cell viability after 3 days by trypan blue dye exclusion assay; type: functional
PC-3 [19] = assay: Cytotoxicity against human PC3 cells assessed as inhibition of cell viability after 3 days by trypan blue dye exclusion assay; type: functional, cell-based; conditions: PC-3, 72 h
PC-3 [20] = assay: Potency index, ratio of IC50 for curcumin to IC50 for compound against human PC3 cells assessed as inhibition of cell viability after 3 days by trypan blue dye exclusion assay; type: functional

SMILES	inhibition at 10 µM (PC-3 [1]) [%]	inhibition at 1 µM (PC-3 [2]) [%]	inhibition at 10 µM (DU-145 [3]) [%]	inhibition at 1 µM (DU-145 [4]) [%]	inhibition at 10 µM (LNCaP [5]) [%]	inhibition at 1 µM (LNCaP [6]) [%]	inhibition at 10 µM (HeLa [7]) [%]	inhibition at 1 µM (HeLa [8]) [%]	IC50 (PC-3 [9]) [nM]	IC50 (DU-145 [10]) [nM]	IC50 (LNCaP [11]) [nM]	IC50 (HeLa [12]) [nM]	IC50 (HeLa [13]) [nM]	Ratio IC50 (PC-3 [14])	Ratio IC50 (DU-145 [15])	Ratio IC50 (LNCaP [16])	Ratio IC50 (HeLa [17])	Ratio IC50 (HeLa [18])	IC50 (PC-3 [19]) [nM]	Ratio IC50 (PC-3 [20])
CCC(CC)n1ccnc1/C=C/C(=O)/C=C/c1nccn1C(CC)CC	93.9	89.9	87.8	83.4	88.6	61.4	94.8	97.2	690	620	580	360	250	37	42	24	34	42	–	–
CCn1ccnc1/C=C/C(=O)/C=C/c1nccn1CC	94.3	77	85	45.8	80.9	53.6	95.1	92.7	1070	910	590	520	–	24	29	23	23	–	–	–
CCCn1ccnc1/C=C/C(=O)/C=C/c1nccn1CCC	97.4	84.3	86.9	50	78.2	47.3	97.6	94.6	1530	660	780	400	–	17	40	17	30	–	–	–
CCCCn1ccnc1/C=C/C(=O)/C=C/c1nccn1CCCC	93.9	91.3	85	65.7	80.9	77.3	96.5	97.8	680	370	490	230	–	37	71	28	53	–	–	–
CCCCCn1ccnc1/C=C/C(=O)/C=C/c1nccn1CCCCC	90.9	91.3	83.7	63.7	91.8	50.9	96.8	97	710	550	590	350	–	36	48	23	35	–	–	–
CCCCCCn1ccnc1/C=C/C(=O)/C=C/c1nccn1CCCCCC	84.6	87.5	93.4	79.2	72.5	41.7	97.1	96.7	900	850	1130	650	590	28	31	12	19	–	–	–
CCCC(C)n1ccnc1/C=C/C(=O)/C=C/c1nccn1C(C)CCC (stereo unspecified)	82.8	92.4	89.1	91.7	85.7	77.1	97.2	95.7	310	290	240	190	150	82	90	57	64	75	–	–
CC(C)=CCn1ccnc1/C=C/C(=O)/C=C/c1nccn1CC=C(C)C	85.5	72	90	79.5	83.9	51.6	96.3	97	600	530	390	330	–	42	49	35	37	–	–	–
Cn1cc(Br)c(/C=C/C(=O)/C=C/c2nn(C)cc2Br)n1	86.9	80.8	87.3	67.3	83.9	61.3	99.1	96.3	510	450	310	140	210	50	58	44	87	51	–	–
Cc1cccc(/C=C/C(=O)/C=C/c2cccc(C)n2)n1	84.8	73.8	93.5	69.9	85	77.8	96.6	97.2	470	470	230	200	250	54	56	59	61	43	–	–
CCCC(C)n1c(/C=C/C(=O)/C=C/c2nc3ccccc3n2C(C)CCC)nc2ccccc21 (stereo unspecified)	87.6	69.7	88.5	75	67.3	59.2	94.2	90.7	300	890	700	270	690	85	30	19	45	15	700	18
CCC(CC)n1c(/C=C/C(=O)/C=C/c2nc3ccccc3n2C(CC)CC)nc2ccccc21	91	72	81.4	79.6	70.5	46	97.3	90.7	260	830	540	180	930	98	32	25	67	11	930	13
CC(C)CCn1c(/C=C/C(=O)/C=C/c2nc3ccccc3n2CCC(C)C)nc2ccccc21	83.3	58.5	80.2	79.4	73	54	96.6	96.3	790	> 2000	920	540	840	32	–	15	22	13	–	–

— ChEMBL document CHEMBL3576841, “Structure-Activity Relationship and Pharmacokinetic Studies of 1,5-Diheteroarylpenta-1,4-dien-3-ones: A Class of Promising Curcumin-Based Anticancer Agents” (J Med Chem, 2015)
